# Results: patent US20230265151A1, “GIP/GLP1 CO-AGONIST COMPOUNDS” (priority 2020, published 2023)
# Where two headings read alike, the source gives them in different places. *1 amine or outer side, *2 acyl side, *3 side chain or, on linkers, in order; H or OH if unused. Where a SMILES comes first, the peptide text is derived from it. Side-chain parts run from the residue outwards. [ ]: non-standard residue; d: D form. The star is where a group is joined. αMePhe(2-F) = C[C@](N)(Cc1ccccc1F)C(=O)O; γGlu = O=C(O)[C@H](CCC(=O)[*:2])N[*:1]; C14 diacid = O=C(O)CCCCCCCCCCCCC(=O)*; αMeY = C[C@](N)(Cc1ccc(O)cc1)C(=O)O; αMeL = CC(C)C[C@](C)(N)C(=O)O; Orn = NCCC[C@H](N)C(=O)O; AEEA = NCCOCCOCC(=O)O; Aib = CC(C)(N)C(=O)O
# How the values were obtained:
# Type in all cases: cell-based
# [1] = molecular target: T1, hGCGR (Homo sapiens, UniProt P47871); test: Functional cAMP formation (HTRF) in HEK-293 clonal cells expressing hGCGR, 0.1% bovine casein, without or with 1.0% human serum albumin
# T1 construct: expressed in transfected cells
# T1 sequence (P47871 26-477): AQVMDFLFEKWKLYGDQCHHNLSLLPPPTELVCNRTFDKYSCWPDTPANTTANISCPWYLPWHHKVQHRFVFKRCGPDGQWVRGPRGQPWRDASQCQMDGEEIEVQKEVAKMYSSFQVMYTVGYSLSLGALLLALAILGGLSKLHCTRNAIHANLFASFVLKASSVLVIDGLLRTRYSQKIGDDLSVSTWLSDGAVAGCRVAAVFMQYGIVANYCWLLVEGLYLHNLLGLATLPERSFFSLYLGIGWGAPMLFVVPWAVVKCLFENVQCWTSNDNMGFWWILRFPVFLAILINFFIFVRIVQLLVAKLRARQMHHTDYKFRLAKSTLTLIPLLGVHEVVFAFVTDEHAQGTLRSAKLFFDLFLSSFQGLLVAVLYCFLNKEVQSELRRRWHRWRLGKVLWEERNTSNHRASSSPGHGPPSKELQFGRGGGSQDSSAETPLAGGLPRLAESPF
# Outline: (§1)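 Readings of the HTRF 665/620 nm ratio, which falls as cAMP rises, were converted to nM cAMP using a standard curve after 30 min peptide exposure at 37° C.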
# [2] = molecular target: hGLP-1R (Homo sapiens, UniProt P43220); test: Functional cAMP formation (HTRF) in HEK-293 clonal cells expressing hGLP-1R, 0.1% bovine casein, without or with 1.0% human serum albumin; parameters: expressed in transfected cells; conditions: for Emax: percent of maximal response to GLP-1(7-36)NH2; for EC50: cAMP, 0.1% bovine casein (no human serum albumin), geometric mean
# Sequence of hGLP-1R (P43220 24-463): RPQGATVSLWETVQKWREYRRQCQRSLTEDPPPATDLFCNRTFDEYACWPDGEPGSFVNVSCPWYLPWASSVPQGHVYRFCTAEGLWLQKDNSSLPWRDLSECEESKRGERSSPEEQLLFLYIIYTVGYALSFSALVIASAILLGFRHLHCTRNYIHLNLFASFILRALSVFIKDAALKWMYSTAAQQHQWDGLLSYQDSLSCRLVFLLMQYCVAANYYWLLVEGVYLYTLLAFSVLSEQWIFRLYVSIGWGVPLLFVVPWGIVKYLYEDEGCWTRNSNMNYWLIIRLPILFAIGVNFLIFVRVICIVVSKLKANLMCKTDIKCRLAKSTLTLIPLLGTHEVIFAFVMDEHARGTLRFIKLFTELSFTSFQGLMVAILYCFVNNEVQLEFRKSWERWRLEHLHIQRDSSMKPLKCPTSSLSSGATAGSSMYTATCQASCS
# Outline: as §1
# [3] = molecular target: T2, hGIPR (Homo sapiens, UniProt P48546); test: Functional cAMP formation (HTRF) in HEK-293 clonal cells expressing hGIPR, 0.1% bovine casein, without or with 1.0% human serum albumin; conditions: for Emax: percent of maximal response to GIP(1-42)NH2; for EC50: cAMP, 0.1% bovine casein (no human serum albumin), geometric mean
# T2 construct: expressed in transfected cells
# T2 sequence (P48546 22-466): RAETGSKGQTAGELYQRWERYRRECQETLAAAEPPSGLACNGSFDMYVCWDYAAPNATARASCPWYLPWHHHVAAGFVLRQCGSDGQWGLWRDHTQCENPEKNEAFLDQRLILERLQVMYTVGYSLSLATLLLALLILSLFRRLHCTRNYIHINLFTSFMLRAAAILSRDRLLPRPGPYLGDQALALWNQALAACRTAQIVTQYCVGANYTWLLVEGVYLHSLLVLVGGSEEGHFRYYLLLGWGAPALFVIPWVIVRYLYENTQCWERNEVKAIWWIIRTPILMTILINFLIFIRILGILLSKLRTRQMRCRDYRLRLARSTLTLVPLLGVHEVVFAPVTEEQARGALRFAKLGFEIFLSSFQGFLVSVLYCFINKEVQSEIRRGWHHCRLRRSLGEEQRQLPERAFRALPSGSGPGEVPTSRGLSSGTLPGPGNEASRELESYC
# Outline: as §1
smiles,measurement,setting,value
CC[C@H](C)[C@H](NC(=O)[C@H](CC(C)C)NC(=O)[C@](C)(Cc1ccc(O)cc1)NC(=O)[C@H](CCCCNC(=O)COCCOCCNC(=O)CC[C@H](NC(=O)CCCCCCCCCCCCC(=O)O)C(=O)O)NC(=O)[C@@H](NC(=O)[C@H](Cc1ccccc1)NC(=O)[C@H](CCCN)NC(=O)C(C)(C)NC(=O)[C@H](CCC(N)=O)NC(=O)[C@H](C)NC(=O)[C@H](CCC(N)=O)NC(=O)[C@H](CCCN)NC(=O)[C@H](CC(=O)O)NC(=O)[C@H](CC(C)C)NC(=O)[C@](C)(CC(C)C)NC(=O)[C@@H](NC(=O)C(C)(C)NC(=O)[C@H](Cc1ccncc1)NC(=O)[C@H](CC(=O)O)NC(=O)[C@H](CO)NC(=O)[C@@H](NC(=O)[C@](C)(Cc1ccccc1F)NC(=O)[C@@H](NC(=O)CNC(=O)[C@H](CCC(=O)O)NC(=O)C(C)(C)NC(=O)[C@@H](N)Cc1ccc(O)cc1)[C@@H](C)O)[C@@H](C)O)[C@@H](C)CC)[C@@H](C)CC)C(=O)N[C@@H](CCCCNC(=O)COCCOCCNC(=O)CC[C@H](NC(=O)CCCCCCCCCCCCC(=O)O)C(=O)O)C(=O)NCC(=O)NCC(=O)N1CCC[C@H]1C(=O)N[C@@H](CO)C(=O)N[C@@H](CO)C(=O)NCC(=O)N[C@@H](C)C(=O)N1CCC[C@H]1C(=O)N1CCC[C@H]1C(=O)N1CCC[C@H]1C(=O)N[C@@H](CO)C(N)=O [Example 459],EC50,"[1]; cAMP, 37° C., 0.1% bovine casein (no human serum albumin), geometric mean, read-out: hGCGR EC50, nM (SEM, n)",> 9950 nM
same,EC50,"[1]; cAMP, 37° C., 0.1% bovine casein and 1.0% human serum albumin, geometric mean (SEM, n), read-out: hGCGR EC50, nM (SEM, n)",> 9950 nM
same,Emax,"[2]; HEK293, cAMP, 37° C., 0.1% bovine casein, arithmetic mean, read-out: hGLP-1R Emax, % ± SEM",120%
same,EC50,"[2]; 37° C., read-out: hGLP-1R EC50, nM (SEM, n)",0.18 nM
same,Emax,"[3]; HEK293, cAMP, 37° C., 0.1% bovine casein and 1.0% human serum albumin, read-out: hGIPR Emax, % ± SEM",89.3%
same,EC50,"[3]; 37° C., read-out: hGIPR EC50, nM (SEM, n)",0.013 nM
CC[C@H](C)[C@H](NC(=O)[C@H](CCCN)NC(=O)[C@H](CC(=O)O)NC(=O)[C@H](CC(C)C)NC(=O)[C@](C)(CC(C)C)NC(=O)[C@@H](NC(=O)C(C)(C)NC(=O)[C@H](Cc1ccncc1)NC(=O)[C@H](CC(=O)O)NC(=O)[C@H](CO)NC(=O)[C@@H](NC(=O)[C@](C)(Cc1ccccc1F)NC(=O)[C@@H](NC(=O)CNC(=O)[C@H](CCC(=O)O)NC(=O)C(C)(C)NC(=O)[C@@H](N)Cc1ccc(O)cc1)[C@@H](C)O)[C@@H](C)O)[C@@H](C)CC)C(=O)N[C@@H](C)C(=O)N[C@@H](CCC(N)=O)C(=O)NC(C)(C)C(=O)N[C@@H](CCCCNC(=O)COCCOCCNC(=O)COCCOCCNC(=O)CC[C@H](NC(=O)CCCCCCCCCOc1ccc(C(=O)O)cc1)C(=O)O)C(=O)N[C@@H](Cc1ccccc1)C(=O)N[C@H](C(=O)N[C@H](CCC(=O)O)C(=O)N[C@@](C)(Cc1ccc(O)cc1)C(=O)N[C@@H](CC(C)C)C(=O)N[C@H](C(=O)N[C@@H](CCCCNC(=O)COCCOCCNC(=O)COCCOCCNC(=O)CC[C@H](NC(=O)CCCCCCCCCOc1ccc(C(=O)O)cc1)C(=O)O)C(=O)NCC(=O)NCC(=O)N1CCC[C@H]1C(=O)N[C@@H](CO)C(=O)N[C@@H](CO)C(=O)NCC(=O)N[C@@H](C)C(=O)N1CCC[C@H]1C(=O)N1CCC[C@H]1C(=O)N1CCC[C@H]1C(=O)N[C@@H](CO)C(N)=O)[C@@H](C)CC)[C@@H](C)CC [Example 247],EC50,"[1]; hGCGR EC50, nM (SEM, n), 0.1% bovine casein and 1.0% human serum albumin, 37° C., geometric mean",> 9950 nM
same,EC50,"[1]; hGCGR EC50, nM (SEM, n), cAMP, incubated at 37° C., 0.1% bovine casein (no human serum albumin), geometric mean",> 9950 nM
same,Emax,"[2]; HEK293, read-out: hGLP-1R Emax, % ± SEM, 0.1% bovine casein and 1.0% human serum albumin, 37° C.",109%
same,EC50,"[2]; hGLP-1R EC50, nM (SEM, n), incubated at 37° C.",1 nM
same,Emax,"[3]; HEK293, read-out: hGIPR Emax, % ± SEM, 0.1% bovine casein and 1.0% human serum albumin, 37° C.",90.2%
same,EC50,"[3]; hGIPR EC50, nM (SEM, n), incubated at 37° C.",0.022 nM
CC[C@H](C)[C@H](NC(=O)[C@H](CCCN)NC(=O)[C@H](CC(=O)O)NC(=O)[C@H](CC(C)C)NC(=O)[C@](C)(CC(C)C)NC(=O)[C@@H](NC(=O)C(C)(C)NC(=O)[C@H](Cc1ccc(O)cc1)NC(=O)[C@H](CC(=O)O)NC(=O)[C@H](CO)NC(=O)[C@@H](NC(=O)[C@](C)(Cc1ccccc1F)NC(=O)[C@@H](NC(=O)CNC(=O)[C@H](CCC(=O)O)NC(=O)C(C)(C)NC(=O)[C@@H](N)Cc1ccc(O)cc1)[C@@H](C)O)[C@@H](C)O)[C@@H](C)CC)C(=O)N[C@@H](C)C(=O)N[C@@H](CCC(N)=O)C(=O)NC(C)(C)C(=O)N[C@@H](CCCCNC(=O)COCCOCCNC(=O)COCCOCCNC(=O)CC[C@H](NC(=O)CCCCCCCCCCCCC(=O)O)C(=O)O)C(=O)N[C@@H](Cc1ccccc1)C(=O)N[C@H](C(=O)N[C@H](CCC(=O)O)C(=O)N[C@@](C)(Cc1ccc(O)cc1)C(=O)N[C@@H](CC(C)C)C(=O)N[C@H](C(=O)N[C@@H](CCC(=O)O)C(=O)NCC(=O)NCC(=O)N1CCC[C@H]1C(=O)N[C@@H](CO)C(=O)N[C@@H](CO)C(=O)NCC(=O)N[C@@H](C)C(=O)N1CCC[C@H]1C(=O)N1CCC[C@H]1C(=O)N1CCC[C@H]1C(=O)N[C@@H](CO)C(=O)N[C@@H](CCCCNC(=O)COCCOCCNC(=O)COCCOCCNC(=O)CC[C@H](NC(=O)CCCCCCCCCCCCC(=O)O)C(=O)O)C(N)=O)[C@@H](C)CC)[C@@H](C)CC [Example 235] (H-Y[Aib]EGT[αMePhe(2-F)]TSDY[Aib]I[αMeL]LD[Orn]IAQ[Aib]K([AEEA-AEEA-γGlu-C14 diacid])FI[dE][αMeY]LIEGGPSSGAPPPSK([AEEA-AEEA-γGlu-C14 diacid])-NH2; N-terminus assumed),EC50,"[1]; 0.1% bovine casein and 1.0% human serum albumin, 37° C., geometric mean, read-out: hGCGR EC50, nM (SEM, n)",> 9950 nM
same,EC50,"[1]; cAMP, incubated at 37° C., 0.1% bovine casein (no human serum albumin), geometric mean, read-out: hGCGR EC50, nM (SEM, n)",> 9950 nM
same,Emax,"[2]; HEK293, 0.1% bovine casein and 1.0% human serum albumin, 37° C., read-out: hGLP-1R Emax, % ± SEM",152%
same,EC50,"[2]; incubated at 37° C., read-out: hGLP-1R EC50, nM (SEM, n)",0.295 nM
same,Emax,"[3]; HEK293, 0.1% bovine casein and 1.0% human serum albumin, 37° C., read-out: hGIPR Emax, % ± SEM",92.2%
same,EC50,"[3]; incubated at 37° C., read-out: hGIPR EC50, nM (SEM, n)",0.0168 nM
CC[C@H](C)[C@H](NC(=O)[C@H](CC(C)C)NC(=O)[C@](C)(Cc1ccc(O)cc1)NC(=O)[C@H](CCCCNC(=O)COCCOCCNC(=O)COCCOCCNC(=O)CC[C@H](NC(=O)CCCCCCCCCOc1ccc(C(=O)O)cc1)C(=O)O)NC(=O)[C@@H](NC(=O)[C@H](Cc1ccccc1)NC(=O)[C@H](CCCN)NC(=O)C(C)(C)NC(=O)[C@H](CCC(N)=O)NC(=O)[C@H](C)NC(=O)[C@H](CCC(N)=O)NC(=O)[C@H](CCCN)NC(=O)[C@H](CC(=O)O)NC(=O)[C@H](CC(C)C)NC(=O)[C@](C)(CC(C)C)NC(=O)[C@@H](NC(=O)C(C)(C)NC(=O)[C@@H](NC(=O)[C@H](CC(=O)O)NC(=O)[C@H](CO)NC(=O)[C@@H](NC(=O)[C@](C)(Cc1ccccc1F)NC(=O)[C@@H](NC(=O)CNC(=O)[C@H](CCC(=O)O)NC(=O)C(C)(C)NC(=O)[C@@H](N)Cc1ccc(O)cc1)[C@@H](C)O)[C@@H](C)O)C(C)C)[C@@H](C)CC)[C@@H](C)CC)C(=O)N[C@@H](CCCCNC(=O)COCCOCCNC(=O)COCCOCCNC(=O)CC[C@H](NC(=O)CCCCCCCCCOc1ccc(C(=O)O)cc1)C(=O)O)C(=O)NCC(=O)NCC(=O)N1CCC[C@H]1C(=O)N[C@@H](CO)C(=O)N[C@@H](CO)C(=O)NCC(=O)N[C@@H](C)C(=O)N1CCC[C@H]1C(=O)N1CCC[C@H]1C(=O)N1CCC[C@H]1C(=O)N[C@@H](CO)C(N)=O [Example 447],EC50,"[1]; hGCGR EC50, nM (SEM, n), cAMP, 37° C., 0.1% bovine casein (no human serum albumin), geometric mean",> 9950 nM
same,EC50,"[1]; hGCGR EC50, nM (SEM, n), cAMP, 37° C., 0.1% bovine casein and 1.0% human serum albumin, geometric mean (SEM, n)",> 9950 nM
same,Emax,"[2]; HEK293, read-out: hGLP-1R Emax, % ± SEM, cAMP, 37° C., 0.1% bovine casein, arithmetic mean",105%
same,EC50,"[2]; hGLP-1R EC50, nM (SEM, n), 37° C.",0.219 nM
same,EC50,"[3]; hGIPR EC50, nM (SEM, n), 37° C.",0.017 nM
